Test [1] has as its target T1, GPR40 (Homo sapiens, UniProt O14842). The test is described as follows: Inositol phosphate accumulation assay (A9_GPR40 cells). The test is classed as cell-based. On the set-up: expressed in transfected cells; host or cells: CHO cells stably transfected with GPR40 and aequorin. The conditions noted are these: inositol phosphate assay, A9_GPR40 cells, 1 hour; read-out: IP3 EC50. Put shortly: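 [^3H] inositol phosphate accumulation was measured by SPA after 1 h compound exposure at 37° C in HBSS/10 mM LiCl containing HSA, ending with a 20 mM formic acid quench. The GPR40-transfected A9 cells had first been labelled overnight (16 h) with 1 μCi/mL ^3H-inositol.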

Test [2] deals with T1, GPR40. The test is described as follows: Cell-based aequorin assay (CHO cells stably expressing GPR40 and aequorin). Also noted: expressed in transfected cells; host or cells: CHO cells stably transfected with GPR40 and aequorin. To be noted: activation of human GPR40, CHO cells, 0.01% HSA. Put shortly: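 CHO cells stably co-expressing GPR40 and aequorin, loaded with coelenterazine (1 ug/mL, 2 h, room temperature) in H/HBSS with 20 mM Hepes and 0.01% fatty acid-free HSA. Serially diluted compounds added; luminescence recorded over 20 s. EC50 from dose-response of maximum relative light units.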

T1 sequence (O14842 whole entry): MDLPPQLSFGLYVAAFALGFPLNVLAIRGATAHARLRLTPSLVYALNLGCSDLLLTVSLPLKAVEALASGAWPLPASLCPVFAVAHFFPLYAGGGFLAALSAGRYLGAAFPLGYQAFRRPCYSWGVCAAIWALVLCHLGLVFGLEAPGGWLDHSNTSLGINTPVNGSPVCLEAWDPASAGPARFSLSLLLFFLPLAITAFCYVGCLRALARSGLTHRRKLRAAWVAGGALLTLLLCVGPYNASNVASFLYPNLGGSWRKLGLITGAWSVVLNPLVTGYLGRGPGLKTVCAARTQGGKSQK

The EC50 is the concentration giving half of the maximal effect. With `COc1ccc(F)c(-c2ccc(COc3cccc([C@@H](CC(=O)O)C4CC4)c3)cc2C2=CCCC2)c1` (single isomer, unassigned) [Example 66.68, (S)-3-[3-(2-Cyclopent-1-enyl-2′-fluoro-5′-methoxy-biphenyl-4-ylmethoxy)-phenyl]-3-cyclopropyl-propionic acid or (R)-3-[3-(2-cyclopent-1-enyl-2′-fluoro-5′-methoxy-biphenyl-4-ylmethoxy)-phenyl]-3-cyclopropyl-propionic acid], the values for the EC50 on GPR40 [1] and at GPR40 [2] were 10 to 100 nM and 100 to 1000 nM, respectively.
On to `COc1ccc(F)c(-c2ccc(COc3cccc([C@@H](CC(=O)O)C4CC4)c3)cc2CN2[C@H](C)CCC[C@H]2C)c1` (single isomer, unassigned) [Example 66.69], for which the values for the EC50 at GPR40 [1] and on GPR40 [2] were 10 to 100 nM and 100 to 1000 nM, respectively.
Turning to `COc1ccc(F)c(-c2ccc(COc3cccc(C(CC(=O)O)C4CC4)c3)cc2CN2C(C)CCCC2C)c1` (single isomer, unassigned) [Example 66.70], the EC50 was 10 to 100 nM at GPR40 [1] and 100 to 1000 nM on GPR40 [2].
Turning to `COc1ccc(F)c(-c2ccc(COc3cccc([C@@H](CC(=O)O)C4CC4)c3)cc2CN2[C@H](C)CC[C@H]2C)c1` (single isomer, unassigned) [Example 66.71, (3S)-3-Cyclopropyl-3-(3-(((2-(((2R,5R)-2,5-dimethyl-1-pyrrolidinyl)methyl)-2′-fluoro-5′-(methyloxy)-1,1′-biphenyl-4-yl)methyl)oxy)phenyl)propanoic acid or (3R)-3-cyclopropyl-3-(3-(((2-(((2R,5R)-2,5-dimethyl-1-pyrrolidinyl)methyl)-2′-fluoro-5′-(methyloxy)-1,1′-biphenyl-4-yl)methyl)oxy)phenyl)propanoic acid], the EC50 on GPR40 [1] and at GPR40 [2] was 100 to 1000 nM each time.
On to `COc1cc(-c2cc(F)c(COc3cccc([C@@H](CC(=O)O)C4CC4)c3)cc2[C@H]2CCCC2(C)C)c(F)cn1` (single isomer, unassigned) [Example 66.77], for which the EC50 on GPR40 [1] is less than 10 nM; at GPR40 [2], 10 to 100 nM.
`CCCC(CC(=O)O)c1cccc(OCc2ccc(-c3cc(OC)ccc3F)c(OC3CCCCCC3)c2)c1` (single isomer, unassigned) [Example 67.2, (3R)-3-(3-(((2-(Cycloheptyloxy)-2′-fluoro-5′-(methyloxy)-1,1′-biphenyl-4-yl)methyl)oxy)phenyl)hexanoic acid or (3S)-3-(3-(((2-(cycloheptyloxy)-2′-fluoro-5′-(methyloxy)-1,1′-biphenyl-4-yl)methyl)oxy)phenyl)hexanoic acid]: the EC50 on GPR40 [1] and at GPR40 [2] was 100 to 1000 nM throughout.
For `CCCC(CC(=O)O)c1cccc(OCc2ccc(-c3cc(OC)ccc3F)c(C3=CCCCCC3)c2)c1` (single isomer, unassigned) [Example 67.6, (3R)-3-(3-(((2-(1-Cyclohepten-1-yl)-2′-fluoro-5′-(methyloxy)-1,1′-biphenyl-4-yl)methyl)oxy)phenyl)hexanoic acid or (3S)-3-(3-(((2-(1-cyclohepten-1-yl)-2′-fluoro-5′-(methyloxy)-1,1′-biphenyl-4-yl)methyl)oxy)phenyl)hexanoic acid], the results for the EC50 at GPR40 [1] and at GPR40 [2] were 10 to 100 nM and 100 to 1000 nM, respectively.
For `CCCC(CC(=O)O)c1cccc(OCc2ccc(-c3cc(OC)ccc3F)c(C3CCCCCC3)c2)c1` (single isomer, unassigned) [Example 67.7, (3R)-3-(3-(((2-Cycloheptyl-2′-fluoro-5′-(methyloxy)-1,1′-biphenyl-4-yl)methyl)oxy)phenyl)hexanoic acid or (3S)-3-(3-(((2-cycloheptyl-2′-fluoro-5′-(methyloxy)-1,1′-biphenyl-4-yl)methyl)oxy)phenyl)hexanoic acid], in that order: 10 to 100 nM and 100 to 1000 nM.
Regarding `CCCC(CC(=O)O)c1cccc(OCc2ccc(-c3cc(OC)ccc3F)c(C3CCCCC3)c2)c1` (single isomer, unassigned) [Example 67.8, (3R)-3-(3-(((2-Cyclohexyl-2′-fluoro-5′-(methyloxy)-1,1′-biphenyl-4-yl)methyl)oxy)phenyl)hexanoic acid or (3S)-3-(3-(((2-cyclohexyl-2′-fluoro-5′-(methyloxy)-1,1′-biphenyl-4-yl)methyl)oxy)phenyl)hexanoic acid], the EC50 was 10 to 100 nM at GPR40 [1] and 100 to 1000 nM at GPR40 [2].
In the case of `CCC[C@H](CC(=O)O)c1cccc(OCc2ccc(-c3cc(OC)ccc3F)c(C3CCCC3(C)C)c2)c1` (single isomer, unassigned) [Example 67.11, (3R)-3-(3-(((2-(2,2-Dimethylcyclopentyl)-2′-fluoro-5′-(methyloxy)-1,1′-biphenyl-4-yl)methyl)oxy)phenyl)hexanoic acid or (3S)-3-(3-(((2-(2,2-dimethylcyclopentyl)-2′-fluoro-5′-(methyloxy)-1,1′-biphenyl-4-yl)methyl)oxy)phenyl)hexanoic acid], the EC50 on GPR40 [1] is 10 to 100 nM; on GPR40 [2] it was 100 to 1000 nM.
For the molecule `CCCC(CC(=O)O)c1cccc(OCc2ccc(-c3cccc(OC)c3)c(C3=CCCC3(C)C)c2)c1` (single isomer, unassigned) [Example 67.12, (3R)-3-(3-(((2-(5,5-Dimethyl-1-cyclopenten-1-yl)-3′-(methyloxy)-1,1′-biphenyl-4-yl)methyl)oxy)phenyl)hexanoic acid or (3S)-3-(3-(((2-(5,5-dimethyl-1-cyclopenten-1-yl)-3′-(methyloxy)-1,1′-biphenyl-4-yl)methyl)oxy)phenyl)hexanoic acid], the EC50 on GPR40 [1] was 10 to 100 nM; on GPR40 [2] it was 100 to 1000 nM.
Take `CCC[C@H](CC(=O)O)c1cccc(OCc2ccc(-c3cc(OC)ccc3F)c(N3CCCCC3)c2)c1` (single isomer, unassigned) [Example 67.20, (3R)-3-(3-(((2′-Fluoro-5′-(methyloxy)-2-(1-piperidinyl)-1,1′-biphenyl-4-yl)methyl)oxy)phenyl)hexanoic acid or (3S)-3-(3-(((2′-fluoro-5′-(methyloxy)-2-(1-piperidinyl)-1,1′-biphenyl-4-yl)methyl)oxy)phenyl)hexanoic acid]: the EC50 at GPR40 [1] lay in the range of 10 to 100 nM; at GPR40 [2] it was 100 to 1000 nM.
With `CCC[C@H](CC(=O)O)c1cccc(OCc2cc(C3=CCCC3(C)C)c(-c3cc(OC)ccc3F)cc2F)c1` (single isomer, unassigned) [Example 67.21], the EC50 at GPR40 [1] lay within 10 to 100 nM; on GPR40 [2], 100 to 1000 nM.
For the molecule `C=CC(C)(C)[C@H](OC)c1cc(COc2cccc([C@H](CCC)CC(=O)O)c2)ccc1-c1cc(OC)ccc1F` (single isomer, unassigned) [Example 67.24], the EC50 lay in the range of 10 to 100 nM at GPR40 [1] and 100 to 1000 nM at GPR40 [2].
Take `COc1ccc(F)c(-c2ccc(COc3cccc(C(CC(=O)O)CC4CC4)c3)cc2C2CCCCCC2)c1` (single isomer, unassigned) [Example 69.1, (3R)-3-(3-(((2-Cycloheptyl-2′-fluoro-5′-(methyloxy)-1,1′-biphenyl-4-yl)methyl)oxy)phenyl)-4-cyclopropylbutanoic acid or (3S)-3-(3-(((2-cycloheptyl-2′-fluoro-5′-(methyloxy)-1,1′-biphenyl-4-yl)methyl)oxy)phenyl)-4-cyclopropylbutanoic acid]: the EC50 was less than 10 nM on GPR40 [1] and 100 to 1000 nM at GPR40 [2].
Turning to `COc1cccc(-c2ccc(COc3cccc(C(CC(=O)O)CC4CC4)c3)cc2C2=CCCC2(C)C)c1` (single isomer, unassigned) [Example 69.2, (3R)-4-Cyclopropyl-3-(3-(((2-(5,5-dimethyl-1-cyclopenten-1-yl)-3′-(methyloxy)-1,1′-biphenyl-4-yl)methyl)oxy)phenyl)butanoic acid or (3S)-4-cyclopropyl-3-(3-(((2-(5,5-dimethyl-1-cyclopenten-1-yl)-3′-(methyloxy)-1,1′-biphenyl-4-yl)methyl)oxy)phenyl)butanoic acid], the EC50 on GPR40 [1] fell in the range of 10 to 100 nM; at GPR40 [2] it was 100 to 1000 nM.
`COc1cccc(-c2ccc(COc3cccc(C(CC(=O)O)CC4CC4)c3)cc2C(C)(C)C)c1` (single isomer, unassigned) [Example 69.3, (3R)-4-Cyclopropyl-3-(3-(((2-(1,1-dimethylethyl)-3′-(methyloxy)-1,1′-biphenyl-4-yl)methyl)oxy)phenyl)butanoic acid or (3S)-4-cyclopropyl-3-(3-(((2-(1,1-dimethylethyl)-3′-(methyloxy)-1,1′-biphenyl-4-yl)methyl)oxy)phenyl)butanoic acid]: the EC50 at GPR40 [1] lay in the range of 10 to 100 nM; on GPR40 [2], 100 to 1000 nM.
With `COc1ccc(F)c(-c2ccc(COc3cccc(C(CC(=O)O)CC4CC4)c3)cc2C(C)(C)C)c1` (single isomer, unassigned) [Example 69.4, (3R)-4-Cyclopropyl-3-(3-(((2-(1,1-dimethylethyl)-2′-fluoro-5′-(methyloxy)-1,1′-biphenyl-4-yl)methyl)oxy)phenyl)butanoic acid or (3S)-4-cyclopropyl-3-(3-(((2-(1,1-dimethylethyl)-2′-fluoro-5′-(methyloxy)-1,1′-biphenyl-4-yl)methyl)oxy)phenyl)butanoic acid], the concentration giving a half-maximal response (EC50) on GPR40 [1] fell in the range of 10 to 100 nM; on GPR40 [2], 100 to 1000 nM.

For the origin of these results see patent US8030354B2, “Substituted biphenyl GPR40 modulators” (Amgen Inc., priority 2007, dated 2011).
